From paper PMC4957748, “Development of Novel Erythromycin Derivatives with Inhibitory Activity against Proliferation of Tumor Cells” (PLoS ONE, 2016)

Assays:
[1] = system: fibrosarcoma (HT-1080) cells; assay: MTT antiproliferative assay, HT-1080; format: cell-based, human; details: mean±SD of 3 experiments
Experimental: (§1) In vitro antiproliferative activity against three human tumor cell lines, including gastric adenocarcinoma (SGC-7901), oral carcinoma (KB) and fibrosarcoma (HT-1080), was evaluated using the MTT assay with cis-platinum (Cpt) as the positive control.
(§2) The antiproliferative activity of the synthetic compounds was measured by 3-(4, 5- dimethylthiazol-2-yl)-2, 5-diphenyltetrazolium bromide (MTT) assay. Cells were seeded in 96-well plates (Corning, NY, USA) at a density of 8×10^3 per well. After 24 h of incubation, cells were treated with different concentrations (0.1, 0.3, 1, 3 and 10 μg/ml) of the EM-A dimers for the indicated time periods. Afterwards, MTT (Sigma, St. Louis, MO) solution [5.0 mg/ml in phosphate-buffered saline (PBS)] was added (20 μl/well) and incubated for another 4 h at 37°C. The purple formazan crystals were then dissolved in 100 μl dimethyl sulfoxide (DMSO). After 5 min, the plates were read on a plate microreader (TECANSPECTRA, Wetzlar, Germanay) at 490 nm. The IC50 values were obtained using the software of Dose–Effect Analysis with Microcomputers and were defined as concentration of drug causing 50% inhibition in absorbance compared with control cells. Assays were performed in triplicate from three independent experiments.

[2] = system: normal mouse fibroblast cells (L929); assay: MTT assay, toxicity against normal fibroblasts L929; format: cell-based
Experimental: as §2

[3] = system: gastric adenocarcinoma (SGC-7901) cells; assay: MTT antiproliferative assay, SGC-7901; format: cell-based, human; details: mean±SD of 3 experiments
Experimental: as §1, §2

[4] = system: oral carcinoma (KB) cells; assay: MTT antiproliferative assay, KB; format: cell-based, human; details: 24 h of drug exposure, mean±SD of 3 experiments
Experimental: as §1, §2

[5] = system: hepatocellular carcinoma (HepG-2) cells; assay: MTT antiproliferative assay, HepG-2; format: cell-based, human; details: 24 h of drug exposure, mean±SD of 3 experiments
Experimental: (§3) All cell lines were purchased from American Type Culture Collection (ATCC, Manassas, VA, USA). Non-small cell lung carcinoma cells (A549), hepatocellular carcinoma cells (HepG-2) and breast carcinoma cells (MCF-7) were cultured in DMEM medium (Sigma, St. Louis, MO, USA), while gastric carcinoma cells (BGC-823), laryngeal carcinoma cells (Hep2), cervical carcinoma cells (HeLa) were cultured in RPMI-1640 medium (Sigma, St. Louis, MO, USA), which were supplemented with 10% fetal bovine serum (FBS; TBD, Tianjin, China) at 37°C in humidified atmosphere with 5% CO2.
as §2, with “The IC50 values were obtained using the software of Dose–Effect Analysis with Microcomputers and were defined as concentration of drug causing 50% inhibition in absorbance compared with control cells. Assays were performed in triplicate from three independent experiments.” left out

[6] = system: gastric carcinoma (BGC-823) cells; assay: MTT antiproliferative assay, BGC-823; format: cell-based, human; details: 24 h of drug exposure, mean±SD of 3 experiments
Experimental: as §3
as §2, with “The IC50 values were obtained using the software of Dose–Effect Analysis with Microcomputers and were defined as concentration of drug causing 50% inhibition in absorbance compared with control cells. Assays were performed in triplicate from three independent experiments.” left out

[7] = system: laryngeal carcinoma (Hep2) cells; assay: MTT antiproliferative assay, Hep2; format: cell-based, human; details: 24 h of drug exposure, mean±SD of 3 experiments
Experimental: as §3
as §2, with “The IC50 values were obtained using the software of Dose–Effect Analysis with Microcomputers and were defined as concentration of drug causing 50% inhibition in absorbance compared with control cells. Assays were performed in triplicate from three independent experiments.” left out

[8] = system: cervical carcinoma (HeLa) cells; assay: MTT antiproliferative assay, HeLa; format: cell-based, human; details: 24 h of drug exposure, mean±SD of 3 experiments
Experimental: as §3
as §2, with “The IC50 values were obtained using the software of Dose–Effect Analysis with Microcomputers and were defined as concentration of drug causing 50% inhibition in absorbance compared with control cells. Assays were performed in triplicate from three independent experiments.” left out

[9] = system: breast carcinoma (MCF-7) cells; assay: MTT antiproliferative assay, MCF-7; format: cell-based, human; details: 24 h of drug exposure, mean±SD of 3 experiments
Experimental: as §3
as §2, with “The IC50 values were obtained using the software of Dose–Effect Analysis with Microcomputers and were defined as concentration of drug causing 50% inhibition in absorbance compared with control cells. Assays were performed in triplicate from three independent experiments.” left out

[10] = system: non-small cell lung carcinoma (A549) cells; assay: MTT antiproliferative assay, A549; format: cell-based, human; details: 24 h of drug exposure, mean±SD of 3 experiments
Experimental: as §3
as §2, with “The IC50 values were obtained using the software of Dose–Effect Analysis with Microcomputers and were defined as concentration of drug causing 50% inhibition in absorbance compared with control cells. Assays were performed in triplicate from three independent experiments.” left out

Hela cells [11] = assay: Annexin V-FITC/PI apoptosis analysis, Hela; format: cell-based, human; details: 2.5 μM, 24 h (control 4.68%)
Experimental: (§4) The majority of cells (Hela, 88.44% and MCF-7 89.30%) in the control samples were viable and non-apoptotic. […] In addition, an increase in the Annexin V+PI+ population was also observed which indicates late apoptotic or dead cells.
(§5) Cell apoptosis was determined using AnnexinV-FITC/PI Assay Kit according to the manufacturers’ protocols. Briefly, cells were seeded in 6-well plates at a density of 1.2×10^5 (MCF-7) or 1.5×10^5 (HeLa) per well and incubated for 24 h. Then, cells were treated with 0, 0.5, 1.5 or 2.5 μM 1b for 24h. After washed with PBS twice, cells were re-suspended in 100 μL binding buffer containing 5 μL AnnexinV-FITC and 5 μL PI. Following 10 min of incubation, cells were detected by FACScan flow cytometer.

Hela cells [12] = assay: Flow cytometry cell cycle analysis (PI), Hela; format: cell-based, human; details: 1b 24 h
Experimental: (§6) To understand the mechanism driving the antiproliferative activity of the prepared compounds, we analyzed using flow cytometry the cell cycles of Hela and MCF-7 treated for 24h with the selected active compound 1b at 0.5, 1.0 and 2.0μM concentrations (Fig 2B). […] The percentage of apoptotic cells depended on the concentration of 1b.
(§7) Cells were dispensed in 25 ml culture bottle at a density of 5 ×10^5 per bottle. After 24 h incubation, they were treated with compound 1b at given concentrations for 24h. The cells were harvested by 0.05% trypsin (Sigma, St. Louis, MO), then collected by centrifugation, washed with PBS, and fixed with 10 ml ice-cold 70% ethanol at 4°C overnight. After washed with PBS, the cells were suspended in 1ml propidium iodide (PI; 50 mg/L; Sigma, St. Louis, MO) solution supplemented with 1 g/L RNase A (Sigma, St. Louis, MO). Finally, the samples were analyzed by FACScan flow cytometer (Becton Dickinson, Franklin, NJ, USA).

Hela cells [13] = assay: Mitochondrial potential assay (Rhodamine 123), HeLa; format: cell-based, human; details: 24 h
Experimental: Mitochondria play a key role in the process of apoptosis. After treatment with 1b for 24h and stained with Rhodamine 123, the mitochondrial membrane potential (Δψm) changes in HeLa and MCF-7 cells were observed by flow cytometer.
Cells were seeded in 6-well plates at a density of 0.8×10^5 (MCF-7) or 1.0×10^5 (HeLa) per well. After 24 h of incubation, cells were treated with 0, 0.5, 1.5 or 2.5 μM 1b for another 24h. Subsequently, cells were washed with PBS twice, incubated with 1 μg/mL Rhodamine 123 in 1 mL PBS at 37°C for 30 min, and analyzed by FACScan flow cytometer.

MCF-7 cells [14] = assay: Annexin V-FITC/PI apoptosis analysis, MCF-7; format: cell-based, human; details: MCF-7, 2.5 μM, 24 h (control 3.28%)
Experimental: as §4, §5

MCF-7 cells [15] = assay: Flow cytometry cell cycle analysis (PI), MCF-7; format: cell-based, human; details: MCF-7, 1b 24 h
Experimental: as §6, §7

[16] = system: Bax, Bcl-2, cyt c, Caspase-3 in HeLa cells; assay: Western blot analysis of apoptotic proteins, HeLa; format: cell-based, human; details: 24 h
Experimental: (§8) Bax and Bcl-2 proteins are two key apoptosis regulators of Bcl-2 family that govern mitochondrial outer membrane permeabilization (MOMP). To investigate the effects of 1b on Bax and Bcl-2 expressions and its association with cell apoptosis and proliferation, HeLa and MCF-7 cells were treated with different concentration of 1b for 24h before western blot analysis (Fig 6). […] Treatment with 1b led to Δψm depolarization, MOMP enhancing and pro-apoptotic proteins release.
(§9) Cytochrome complex (cyt c) and Caspase-3 play important roles in the process of cell apoptosis. In our case, the effects of 1b on the expression of cyt c and Caspase-3 were examined by treatment of HeLa and MCF-7 cells with different concentration of 1b. […] Treatment with 1b promoted the translocation of cyt c from the mitochondria to cytoplasm. In addition, the amount of 17 kDa cleaved Caspase-3 increased, accompanying with the reducing of zymogen.
(§10) Cells were seeded in 75 mL culture flask at a density of 8 ×10^5 (MCF-7) or 1.2×10^6 (HeLa) and incubated for 24 h. Thereafter, cells were treated with 0, 0.5, 1.5 or 2.5 μM 1b for 24h and harvested by trypsin into the EP tubes.
(§11) For total protein extraction, the cell pellets were lysed in RIPA buffer (Beyotime) supplemented with PMSF on ice for 30 min. After centrifuging at 12000 g for 10 min at 4°C, the cell suspension was collected as the whole cell protein. Cytoplasmic proteins and mitochondrial proteins were extracted from cells using Cell Mitochondria Isolation Kit according to the instructions of manufacturer. The protein concentrations were quantified with BCA Protein Assay Kit (Beyotime) and a plate reader according to the manufacturer’s protocols.
(§12) For western blot analysis, equal protein lysates were separated by electrophoresis on 12% SDS-PAGE gels, and transferred onto PVDF membranes. After blocking with 5% non-fat milk in PBS for 2.5 h at room temperature, the membranes were incubated with primary antibody overnight at 4°C: Bax (1:2000), Bcl-2 (1:1000), Caspase-3 (1:500), Cytochrome c (1:500), and β-actin (1:3000). Then, the blots were washed three times for 10 min each in Tris-NaCl and incubated with secondary HRP-conjugated goat anti-mouse or anti-rabbit IgGs (1:6000 or 1:5000) for 2.5 h at 37°C. The interest proteins were visualized using ECL, and β-actin served as the internal control.

[17] = system: Bax, Bcl-2, cyt c, Caspase-3 in MCF-7 cells; assay: Western blot analysis of apoptotic proteins, MCF-7; format: cell-based, human; details: 24 h
Experimental: as §8, §9, §10, §11, §12

[18] = HeLa, 0.5, 1.5, 2.5 μM, vs control, dose-dependent, P<0.01
[19] = MCF-7, 0.5, 1.5, 2.5 μM, vs control, dose-dependent, P<0.01

SMILES: CCC1OC(=O)C(C)C(O)C(C)C(OC2OC(C)CC(N(C)CC=CCN(C)C3CC(C)OC(OC4C(C)C(OC5CC(C)(OC)C(O)C(C)O5)C(C)C(=O)OC(CC)C(C)(O)C(O)C(C)C(=O)C(C)CC4(C)OC)C3O)C2O)C(C)(OC)CC(C)C(=O)C(C)C(O)C1(C)O (stereo not drawn) [Compound 1i]
- IC50 ([1]; Homo sapiens, HT-1080, 24 h of drug exposure): 11.9 ± 0.8 µM
- IC50 ([2]; L929, 24 h of drug exposure): > 100 µM
- IC50 ([3]; Homo sapiens, SGC-7901, 24 h of drug exposure): 27.1 ± 2.2 µM
- IC50 ([4]; Homo sapiens, KB): 3.1 ± 0.3 µM

SMILES: N.N.[Cl][Pt][Cl] [Cpt, cis-platinum]
- IC50 [5]: 4.7 ± 0.4 µM
- IC50 [6]: 11.8 ± 0.2 µM
- IC50 [7]: 12.3 ± 1.3 µM
- IC50 [8]: 17.4 ± 1.4 µM
- IC50 ([1]; 24 h of drug exposure): 19.7 ± 1.5 µM
- IC50 ([2]; 24 h of drug exposure): 18.5 µM
- IC50 [9]: 2.9 ± 0.1 µM
- IC50 [10]: 5.8 ± 0.2 µM
- IC50 ([3]; 24 h of drug exposure): 4.9 ± 0.4 µM
- IC50 [4]: 4.7 ± 0.3 µM

SMILES: CCC1OC(=O)C(C)C(OC2CC(C)(OC)C(O)C(C)O2)C(C)C(OC2OC(C)CC(N(C)CC=CCN(C)C3CC(C)OC(OC4C(C)C(OC5CC(C)(OC)C(O)C(C)O5)C(C)C(=O)OC(CC)C(C)(O)C(O)C(C)C(=O)C(C)CC4(C)OC)C3O)C2O)C(C)(OC)CC(C)C(=O)C(C)C(O)C1(C)O (stereo not drawn) [Compound 1b]
- early apoptotic cell population (lower right) (Hela cells [11]): 30.30%
- percentage of SubG1 peaks (Hela cells [12]; highest concentration (control 2.28%)): 20.06%
- percentage of G0/G1 peaks (Hela cells [12]; highest concentration (control 55%)): 35%
- mitochondrial membrane potential (Rhodamine 123) (Hela cells [13]; 0.5 μM): 74.17%
- mitochondrial membrane potential (Rhodamine 123) (Hela cells [13]; 2.5 μM): 1.00%
- early apoptotic cell population (lower right) (MCF-7 cells [14]): 54.84%
- percentage of SubG1 peaks (MCF-7 cells [15]; highest concentration (control 3.62%)): 22.51%
- percentage of G0/G1 peaks (MCF-7 cells [15]; highest concentration (control 61%)): 45%
- BCL-2 expression [16, 18]: decreased
- Bax expression [16, 18]: significantly increased
- amount of 17 kDa cleaved Caspase-3 ([16]; HeLa, 0.5 to 2.5 μM): increased
- expression of cyt c in the cytoplasm ([16]; HeLa, concentration increased from 0.5 to 2.5 μM): increased
- BCL-2 expression [17, 19]: decreased
- Bax expression [17, 19]: significantly increased
- amount of 17 kDa cleaved Caspase-3 ([17]; MCF-7, 0.5 to 2.5 μM): increased
- expression of cyt c in the cytoplasm ([17]; MCF-7, concentration increased from 0.5 to 2.5 μM): increased
